Data taken from ChEMBL document CHEMBL5512683, “Discovery of Novel ERα and Aromatase Dual-Targeting PROTAC Degraders to Overcome Endocrine-Resistant Breast Cancer” (J Med Chem, 2024).
Activity calls are given as the source filed them. The calls are words filed in the database; no cut-off is given here.

Columns and labels:
Aromatase = biological target: T1, Aromatase (Homo sapiens, UniProt P11511); assay: Inhibition of recombinant human aromatase using ARO substrate/NADP+ mixture by fluorescence assay
T1 sequence (P11511 whole entry): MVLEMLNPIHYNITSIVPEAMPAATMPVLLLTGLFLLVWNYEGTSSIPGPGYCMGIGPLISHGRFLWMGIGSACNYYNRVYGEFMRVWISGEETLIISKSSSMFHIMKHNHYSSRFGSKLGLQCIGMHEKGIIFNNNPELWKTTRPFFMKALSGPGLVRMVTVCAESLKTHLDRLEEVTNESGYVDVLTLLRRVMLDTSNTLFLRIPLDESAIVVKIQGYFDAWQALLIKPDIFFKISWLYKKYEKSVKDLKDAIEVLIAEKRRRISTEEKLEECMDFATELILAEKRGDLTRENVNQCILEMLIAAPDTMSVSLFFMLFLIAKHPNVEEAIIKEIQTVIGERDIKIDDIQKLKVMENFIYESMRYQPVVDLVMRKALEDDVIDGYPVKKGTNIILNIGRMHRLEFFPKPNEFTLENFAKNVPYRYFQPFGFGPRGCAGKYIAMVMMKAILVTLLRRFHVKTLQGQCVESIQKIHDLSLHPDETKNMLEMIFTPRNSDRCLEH

MCF7 [1] = assay: Reduction in MYC mRNA expression in resistant human MCF7 cells harboring ERalpha Y537S mutant at 5 uM by real-time quantitative polymerase chain reaction (RT-qPCR) analysis; assay type: functional, cell-based
MCF7 [2] = assay: Antiproliferative activity against human resistant MCF7 cells harboring ERalpha Y537S mutant at LBD assessed as cell viability incubated for 96 hrs by CCK8 assay; settings: MCF7, 96 h
MCF7 [3] = assay: Reduction in ERS1 mRNA expression in resistant human MCF7 cells harboring ERalpha D538G mutant at 5 uM by real-time quantitative polymerase chain reaction (RT-qPCR) analysis; assay type: functional, cell-based
MCF7 [4] = assay: Antiproliferative activity against human resistant MCF7 cells harboring ERalpha D538G mutant at LBD assessed as cell viability incubated for 96 hrs by CCK8 assay; settings: MCF7, 96 h
[5] = Anti-proliferative activity against human MCF-10A cells incubated for 96 hrs by CCK8 assay; assay type: toxicity, cell-based
MCF7 [6] = assay: Reduction in MYC mRNA expression in resistant human MCF7 cells harboring ERalpha D538G mutant at 5 uM by real-time quantitative polymerase chain reaction (RT-qPCR) analysis; assay type: functional, cell-based
MCF7 [7] = assay: Anti-proliferative activity against ERalpha positive human MCF7 cells incubated for 96 hrs by CCK8 assay; settings: MCF7, 96 h
MCF7 [8] = assay: Antiproliferative activity against human resistant MCF7 cells harboring EGFR assessed as cell viability incubated for 96 hrs by CCK8 assay; settings: MCF7, 96 h
MCF7 [9] = assay: Reduction in ERS1 mRNA expression in resistant human MCF7 cells harboring EGFR at 5 uM by real-time quantitative polymerase chain reaction (RT-qPCR) analysis; assay type: functional, cell-based
MCF7 [10] = assay: Reduction in ERS1 mRNA expression in resistant human MCF7 cells harboring ERalpha Y537S mutant at 5 uM by real-time quantitative polymerase chain reaction (RT-qPCR) analysis; assay type: functional, cell-based
[11] = biological target: T2, von Hippel-Lindau disease tumor suppressor/Aromatase (Homo sapiens, UniProt P11511+P40337); assay: PROTAC activity at human ARO/VHL E3 ligase in resistant human MCF-7 cells harboring EGFR assessed as degradation of ARO at 0.5 to 10 uM incubated for 24 hrs by Western blot analysis; assay type: cell-based; settings: mcf7, 24 h, dose 0.5-10 µM
MCF7 [12] = assay: Reduction in ERS1 mRNA expression in resistant human MCF7 cells at 5 uM by real-time quantitative polymerase chain reaction (RT-qPCR) analysis; assay type: functional, cell-based
[13] = biological target: T2, von Hippel-Lindau disease tumor suppressor/Aromatase; assay: PROTAC activity at human ARO/VHL E3 ligase in human MCF-7 cells assessed as degradation of ARO incubated for 24 hrs by Western blot analysis; assay type: cell-based; settings: mcf7, 24 h
MCF7 [14] = assay: Reduction in MYC mRNA expression in resistant human MCF7 cells harboring EGFR at 5 uM by real-time quantitative polymerase chain reaction (RT-qPCR) analysis; assay type: functional, cell-based
[15] = biological target: T2, von Hippel-Lindau disease tumor suppressor/Aromatase; assay: PROTAC activity at human ARO/VHL E3 ligase in human MCF-7 cells assessed as degradation of ARO at 1 uM incubated for 24 hrs by Western blot analysis; assay type: cell-based; settings: mcf7, 24 h
MCF7 [16] = assay: Reduction in MYC mRNA expression in resistant human MCF7 cells at 5 uM by real-time quantitative polymerase chain reaction (RT-qPCR) analysis; assay type: functional, cell-based
[17] = Toxicity in Balb/c mouse xenografted with human MCF7 cells assessed as body weight loss at 5 mg/kg, ip every other day measured upto 20 days; assay type: organism-based; settings: in vivo, 480 h, time < 20 day
MCF7 [18] = assay: Induction of degradation of MYC protein in human MCF7 cells at 0.5 to 5 uM by Western blot analysis; assay type: functional, cell-based; settings: dose 0.5-5 µM
[19] = Toxicity in Balb/c mouse xenografted with human MCF7 cells assessed as cellular morphology in liver at 5 mg/kg, ip every other day measured upto 20 days; assay type: organism-based; settings: in vivo, 480 h, time < 20 day
MCF7 [20] = assay: Antitumor activity against human MCF7 cells xenografted in Balb/c mouse model assessed as tumor growth inhibition at 5 mg/kg, ip every other day measured upto 20 days; assay type: functional, organism-based; settings: time <= 20.0 day
[21] = Toxicity in Balb/c mouse xenografted with human MCF7 cells assessed as cellular morphology in heart at 5 mg/kg, ip every other day measured upto 20 days; assay type: organism-based; settings: in vivo, 480 h, time < 20 day
MCF7 [22] = assay: In vivo PROTAC activity in aromatase/VHL E3 ligase in human MCF7 cell xenografted in Balb/c mouse model assessed as reduction in ARO level in tumor at 5 mg/kg, ip every other day measured upto 20 days; assay type: functional, organism-based; settings: time <= 20.0 day
Estrogen receptor beta = Estrogen receptor beta (Homo sapiens, UniProt Q92731); assay: Binding affinity to human ERbeta assessed as inhibition constant incubated under dark condition for 2 hrs by competitive fluorometric binding assay
[23] = Toxicity in Balb/c mouse xenografted with human MCF7 cells assessed as cellular morphology in spleen at 5 mg/kg, ip every other day measured upto 20 days; assay type: organism-based; settings: in vivo, 480 h, time < 20 day
MCF7 [24] = assay: Induction of degradation of MYC protein in human MCF7 cells harboring EGFR at 0.5 to 5 uM by Western blot analysis; assay type: functional, cell-based; settings: dose 0.5-5 µM
MCF7 [25] = assay: In vivo PROTAC activity in ERalpha/VHL E3 ligase in human MCF7 cell xenografted in Balb/c mouse model assessed as reduction in ERalpha level in tumor at 5 mg/kg, ip every other day measured upto 20 days; assay type: functional, organism-based; settings: time <= 20.0 day
[26] = Toxicity in Balb/c mouse xenografted with human MCF7 cells assessed as cellular morphology in kidney at 5 mg/kg, ip every other day measured upto 20 days; assay type: organism-based; settings: in vivo, 480 h, time < 20 day
MCF7 [27] = assay: Induction of degradation of MYC protein in human MCF7 cells harboring ERalpha D538G mutant at 0.5 to 5 uM by Western blot analysis; assay type: functional, cell-based; settings: dose 0.5-5 µM
MCF7 [28] = assay: Induction of degradation of MYC protein in human MCF7 cells harboring ERalpha Y537S mutant at 0.5 to 5 uM by Western blot analysis; assay type: functional, cell-based; settings: dose 0.5-5 µM
MCF7 [29] = assay: In vivo antitumor activity against human MCF7 cells xenografted in Balb/c mouse model assessed as reduction in number of Ki67 positive cells in tumor at 5 mg/kg, ip every other day measured upto 20 days; assay type: functional, organism-based; settings: time <= 20.0 day
[30] = biological target: T2, von Hippel-Lindau disease tumor suppressor/Aromatase; assay: PROTAC activity at human ARO/VHL E3 ligase in human MCF-7 cells assessed as degradation of ARO at 1 uM incubated for 24 hrs in presence of MG132 by Western blot analysis; assay type: cell-based; settings: mcf7, 24 h
MCF7 [31] = assay: Induction of cell cycle arrest in human MCF7 cells assessed as accumulation of cells at G2/M phase at 5 uM incubated for 48 hrs by flow cytometry (reference value: 54.10%); assay type: functional

T2 sequence (P40337 whole entry, one chain of several): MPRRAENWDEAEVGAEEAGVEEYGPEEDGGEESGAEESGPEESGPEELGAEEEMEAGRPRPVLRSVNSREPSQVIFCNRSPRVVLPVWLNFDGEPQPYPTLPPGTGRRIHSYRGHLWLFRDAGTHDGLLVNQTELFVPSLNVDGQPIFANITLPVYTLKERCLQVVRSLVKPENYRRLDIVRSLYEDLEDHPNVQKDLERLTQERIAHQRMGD
Estrogen receptor beta, sequence (Q92731 whole entry): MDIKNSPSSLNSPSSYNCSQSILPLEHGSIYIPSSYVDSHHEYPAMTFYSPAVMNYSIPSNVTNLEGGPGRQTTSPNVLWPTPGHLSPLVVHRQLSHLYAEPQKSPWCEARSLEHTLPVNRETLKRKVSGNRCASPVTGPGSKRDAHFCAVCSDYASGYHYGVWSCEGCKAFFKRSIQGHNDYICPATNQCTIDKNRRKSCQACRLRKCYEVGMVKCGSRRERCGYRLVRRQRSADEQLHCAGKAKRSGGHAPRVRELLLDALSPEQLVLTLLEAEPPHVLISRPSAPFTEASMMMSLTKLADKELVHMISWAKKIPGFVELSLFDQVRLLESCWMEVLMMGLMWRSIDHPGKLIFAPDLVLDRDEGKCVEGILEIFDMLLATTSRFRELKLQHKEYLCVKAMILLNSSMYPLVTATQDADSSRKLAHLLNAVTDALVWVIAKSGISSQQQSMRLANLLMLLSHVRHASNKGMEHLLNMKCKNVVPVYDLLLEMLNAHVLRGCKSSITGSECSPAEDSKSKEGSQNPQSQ

SMILES | IC50 (Aromatase) [nM] | Activity (MCF7 [1]) | IC50 (MCF7 [2]) [nM] | Activity (MCF7 [3]) | IC50 (MCF7 [4]) [nM] | IC50 at 96 h [5] [nM] | Activity (MCF7 [6]) | IC50 (MCF7 [7]) [nM] | IC50 (MCF7 [8]) [nM] | Activity (MCF7 [9]) | Activity (MCF7 [10]) | Activity [13] | Activity (MCF7 [14]) | Activity [15] | further results
Cc1ncsc1-c1ccc([C@H](C)NC(=O)[C@@H]2C[C@@H](O)CN2C(=O)[C@@H](NC(=O)COCCOCCOc2ccc(N(CC(F)(F)F)S(=O)(=O)C3CC4OC3C(c3ccc(-n5ccnc5)cc3)=C4c3ccc(O)cc3)cc2)C(C)(C)C)cc1 (some centres not stated) | 320 | Active | 2100 | inactive | 10000 | > 100000 | Active | 350 | 4400 | inactive | inactive | Dose-Dependent Effect | Active | Active | Activity [11]: Active; Activity (MCF7 [12]): inactive; Activity (MCF7 [16]): inactive
Cc1ncsc1-c1ccc([C@H](C)NC(=O)[C@@H]2C[C@@H](O)CN2C(=O)[C@@H](NC(=O)CCCCCOc2ccc(N(CC(F)(F)F)S(=O)(=O)C3CC4OC3C(c3ccc(-n5ccnc5)cc3)=C4c3ccc(O)cc3)cc2)C(C)(C)C)cc1 (some centres not stated) | 4600 | Active | 2300 | Active | 310 | > 100000 | Active | 540 | 75 | Active | Active | Dose-Dependent Effect | Active | Active | Activity [17]: Non-Toxic; Activity (MCF7 [18]): Active; Activity [19]: Non-Toxic; Activity (MCF7 [20]): Active; Activity [21]: Non-Toxic; Activity (MCF7 [22]): Active; Ki (Estrogen receptor beta): > 79000 nM; Activity [23]: Non-Toxic; Activity (MCF7 [24]): inactive; Activity (MCF7 [25]): Active; Activity [26]: Non-Toxic; Activity (MCF7 [27]): inactive; Activity (MCF7 [28]): inactive; Activity (MCF7 [29]): Active; Activity [30]: Not Active; Activity (MCF7 [31]): 66.31%
